Assay results taken from PMC2908543, “Uropathogenic Escherichia coli Modulates Immune Responses and Its Curli Fimbriae Interact with the Antimicrobial Peptide LL-37” (PLoS Pathogens, 2010).
Entries after “also recorded” stand apart in the source; their conditions may differ.

Assays:
[1] = tested on: curli-mediated biofilm formation by E. coli; test: Effect on formation of biofilm, crystal violet microtiter plate; format: cell-based, Escherichia coli
Method: To measure the ability of the bacteria to adhere and to form biofilm a crystal violet assay in polystyrene microtiter plates (Costar, Corning, NY, USA) was performed. Bacteria were grown in Luria-Bertani (LB) broth without salt for 24 h at 37°C without shaking. Biofilm was then stained with crystal violet (3%). The dye was solubilized with ethanol (95%) and the optical density was measured at 570 nm.
Plates were filled with 90 µL bacterial culture of planktonic cells and 10 µL of aqueous solution of LL-37 in the same concentrations as in the susceptibility assay. As control peptides, sLL-37 (Innovagen AB) and VIP [27] with similar structural properties as LL-37 were utilized. The plates were incubated without shaking at 37°C for 20 h. After incubation, the amount of biofilm formed was determined as described above.

polymeric CsgA = target: T1, polymeric CsgA (Escherichia coli, UniProt P28307); test: Surface plasmon resonance, polymeric CsgA; conditions: polymeric CsgA immobilized (7000 response units), 0.1 µM peptide, 20 µl/min for 3 min, HBS-EP, Biacore 3000; binding constants not determinable
T1 construct: made in house; host or cells: E. coli LSR12 (C600::csg), co-expressed with CsgG
T1 sequence (P28307 21-151): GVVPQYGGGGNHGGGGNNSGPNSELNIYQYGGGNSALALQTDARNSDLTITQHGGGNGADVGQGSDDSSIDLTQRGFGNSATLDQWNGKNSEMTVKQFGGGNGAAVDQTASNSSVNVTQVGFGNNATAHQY
Method: (§1) Binding analysis of LL-37 to both monomeric and polymeric CsgA was performed with surface plasmon resonance (Biacore 3000 instrument; Biacore AB, Uppsala, Sweden). Both monomeric and polymeric CsgA was immobilized on a CM5 sensor chip (Biacore AB) surface by amine coupling. The chip surface was normalized in 70% glycerol and lanes on the chip were activated with injection of 35 µL 0.05 M N-hydroxysuccinimide (NHS)/0.2 M N-ethyl-N′-[3-dimethylamino) propyl]carbodiimide (EDC). Polymeric or monomeric CsgA (1 µM in 10 mM sodium acetate, pH 4.5) was then immobilized on the chip to 7000 response units and 2000 response units, respectively. After immobilization, the lanes were subjected to 60 µL ethanolamine (1 M, pH 8.5) to deactivate remaining activated carboxylic groups. One lane, activated and deactivated, was used as negative control (without addition of CsgA). Standard Biacore HBS-EP (Biacore AB) was utilized as running buffer, and 0.1 µM LL-37, sLL-37 or VIP were injected at 20 µl/min for 3 min. The surface was regenerated after each cycle with 100 mM HCl.

CsgA polymerization = target: T2, CsgA polymerization (Escherichia coli, UniProt P28307); test: CsgA polymerization, Thioflavin T assay, Tecan plate reader; format: biochemical; conditions: 20 µM ThT, 37°C
T2 construct: made in house; host or cells: E. coli LSR12 (C600::csg), co-expressed with CsgG
T2 sequence (P28307 21-151): as above
Method: CsgA-His6 and CsgG, a lipoprotein that is required for CsgA secretion, were overexpressed in LSR12 (C600::csg). The purification procedure of recombinant CsgA-His6 was performed as previously described with some modifications. The filtrate was incubated with nickel-nitrilotriacetic acid (Ni-NTA) agarose (Invitrogen) for 1 h at 4°C with shaking, centrifuged at 200×g for 5 min and transferred to a polyprep chromatography column (Bio-Rad, Hercules, CA, USA). To confirm protein identity of CsgA-His6, the isolated protein was prepared and subjected to SDS-PAGE as described below, and thereafter the protein was transferred from the gel to a polyvinylidene fluoride (PVDF) membrane (Invitrogen) at 160 mA for 60 min. The band of 15 kDa, corresponding to the molecular weight of CsgA-His6, was excised from the membrane stained with Coomassie Blue and analysed with N-terminal sequence analysis as has been described. Since it has previously been shown that CsgA-His6 has the same polymerizing properties as wild-type CsgA [59], we refer to CsgA-His6 as CsgA.
Purified recombinant monomeric CsgA (10 µM) with or without different concentrations of the peptides LL-37, sLL-37 or VIP was mixed with 20 µM of the fiber-specific fluorescent probe ThT (Sigma-Aldrich). Fluorescence was measured with a Tecan infinite M200 reader (Tecan Nordic AB, Täby, Sweden). The excitation and emission wavelength was 430 and 490 nm, respectively. Measurements were conducted at 37°C every 10 min after shaking the sample for five seconds. Background fluorescence of the peptides themselves was subtracted.

monomeric CsgA = target: T3, monomeric CsgA (Escherichia coli, UniProt P28307); test: Surface plasmon resonance, monomeric CsgA; conditions: monomeric CsgA immobilized (2000 response units), 0.1 µM peptide, 20 µl/min for 3 min, HBS-EP, Biacore 3000; binding constants not determinable
T3 construct: made in house; host or cells: E. coli LSR12 (C600::csg), co-expressed with CsgG
T3 sequence (P28307 21-151): as above
Method: as §1

wild-type curli = test: Precipitation of LL-37 with wild-type curli, Western blot of supernatant; format: binding, Escherichia coli; conditions: 0.1 µM LL-37 in PBS with 5 µM wild-type curli, 1 h at 37°C
Method: The cellulose-deficient isogenic mutant of E. coli No. 12 was used to purify wild-type curli, as has been described. Colonies were harvested and suspended in 0.05 M Tris-buffer by using an omnimixer. Bacterial cell debris was discarded by centrifugation at 8000×g for 15 min and curli protein was precipitated by adding 0.1 M MgCl2 and 0.15 M NaCl. The aggregated curli were centrifuged at 16000×g for 15 min, and the pellet was dissolved in 10 mM TRIS, 1 mM EDTA, pH 7.5 with 2% 3-((3-cholamidopropyl)dimethylammonium)-1-propanesulfonate (CHAPS). After incubation for 45 min at 95°C, the solution was centrifuged at 20000×g for 10 min. The pellet containing curli was washed three times with water. Finally, curli were suspended in PBS and used for binding studies with LL-37.
LL-37 (0.1 µM in PBS) was mixed with 5 µM wild-type curli, or 5 µM recombinant polymerized CsgA. As control, the same concentration of LL-37 without curli or CsgA was utilized. The samples were incubated for 1 h at 37°C with shaking and centrifuged for 30 min at 10000×g. An aliquot of the supernatants was analyzed for the presence of LL-37 with Western blot.
Sample preparation and SDS-PAGE was carried out as described above and Western blot was performed as previously described. […]

Structure (SMILES): CC[C@H](C)[C@H](NC(=O)[C@H](CCCCN)NC(=O)[C@H](CCC(=O)O)NC(=O)[C@H](CCCCN)NC(=O)[C@H](CO)NC(=O)[C@H](CCCCN)NC(=O)[C@H](CCCNC(=N)N)NC(=O)[C@H](Cc1ccccc1)NC(=O)[C@H](Cc1ccccc1)NC(=O)[C@H](CC(=O)O)NC(=O)CNC(=O)[C@H](CC(C)C)NC(=O)[C@@H](N)CC(C)C)C(=O)NCC(=O)N[C@@H](CCCCN)C(=O)N[C@@H](CCC(=O)O)C(=O)N[C@@H](Cc1ccccc1)C(=O)N[C@@H](CCCCN)C(=O)N[C@@H](CCCNC(=N)N)C(=O)N[C@H](C(=O)N[C@H](C(=O)N[C@@H](CCC(N)=O)C(=O)N[C@@H](CCCNC(=N)N)C(=O)N[C@H](C(=O)N[C@@H](CCCCN)C(=O)N[C@@H](CC(=O)O)C(=O)N[C@@H](Cc1ccccc1)C(=O)N[C@@H](CC(C)C)C(=O)N[C@@H](CCCNC(=N)N)C(=O)N[C@@H](CC(N)=O)C(=O)N[C@@H](CC(C)C)C(=O)N[C@H](C(=O)N1CCC[C@H]1C(=O)N[C@@H](CCCNC(=N)N)C(=O)N[C@H](C(=O)N[C@@H](CCC(=O)O)C(=O)N[C@@H](CO)C(=O)O)[C@@H](C)O)C(C)C)[C@@H](C)CC)C(C)C)[C@@H](C)CC [LL-37]
- reduction of biofilm formation ([1]; 2.5 µM LL-37, wild-type strain expressing curli and cellulose (data not shown)): more than 80%
- reduction of biofilm formation ([1]; 2.5 µM peptide, cellulose-negative, curli-expressing E. coli strain, 37°C, 20 h, two experiments in triplicates): more than 80%
- biofilm-inhibitory versus bactericidal concentrations ([1]; qualitative comparison): much lower than bactericidal concentrations
- binding / association and dissociation by SPR (polymeric CsgA): higher association with CsgA than the control peptides; also recorded: stronger association and lower dissociation rates
- inhibition of CsgA polymerization (ThT fluorescence) (CsgA polymerization; 10 µM CsgA with different concentrations of peptide): inhibited by LL-37 in a dose-dependent manner
- inhibition of CsgA polymerization (ThT fluorescence) (CsgA polymerization; 10 µM CsgA, molar ratio 1∶1 (CsgA∶LL-37), excitation 430 nm, emission 490 nm): fiber formation was completely inhibited
- binding / association and dissociation by SPR (monomeric CsgA): higher association with CsgA than the control peptides; also recorded: stronger association and lower dissociation rates
- LL-37 in supernatants after precipitation (wild-type curli): pronounced decrease of LL-37 in supernatants; also recorded: the levels of LL-37 decreased in the supernatants
